# How the values were obtained:
# P. aeruginosa PAO1 = assay: microbe, parasite or virus in culture; conditions: Pseudomonas aeruginosa, PAO1, 16 h, read-out: MIC PAO1 —
# Experimental: (§1) Susceptibilities of E. coli and P. aeruginosa cells to different classes of antibiotics were determined by two-fold broth dilution method [1] with following modifications. Cells were grown in Luria-Bertani (LB) broth (tryptone 10 g/L, yeast extract 5 g/L and NaCl 5 g/L) with appropriate selection markers as needed, at 37° C. with shaking at 200 rpm. When needed, at OD600˜0.3, either L-arabinose (final concentration 0.1%) or IPTG (final concentration 0.1 mM) were added to induce the expression of the pore and cells were further incubated until OD600 reached 1.0. MICs of various antimicrobial agents were measured in 96-well micro-titer plates. For this purpose, exponentially growing cells were inoculated at a density of 10^5 cells/ml into wells containing LB medium in the presence of two-fold increasing concentrations of drugs under investigation at constant inducer concentration of 0.1% arabinose for E. coli or 0.1 mM IPTG for P. aeruginosa strains. Cell growth was determined visually or using Spark 10M microplate reader (Tecan) after incubation of the micro-titer plates at 37° C. for 16 h.
# (§2) For this purpose, induced cells were dispensed into 96-well microplates with LB medium containing two-fold dilutions of an antibiotic of interest and a respective concentration of an inducer.
# [1] = tested on: P. aeruginosa PAO1Δ3 (Δ3); conditions: P. aeruginosa Δ3 without pore; 0.1 mM IPTG; LB, 37° C., 16 h
# Experimental: as §1, §2
# [2] = tested on: P. aeruginosa PAO1, PAO1-Pore, Δ3, Δ3-Pore; assay: Fold MIC change between P. aeruginosa strains (OM barrier, efflux); assay type: cell-based, Pseudomonas aeruginosa; conditions: P. aeruginosa
# [3] = tested on: P. aeruginosa Δ3-Pore (GKCW116, FhuAΔC/Δ4L pore); assay: MIC, two-fold broth dilution, P. aeruginosa Δ3-Pore; conditions: P. aeruginosa Δ3-Pore; 0.1 mM IPTG; LB, 37° C., 16 h
# Experimental: as §1, §2
# [4] = tested on: E. coli WT-Pore (GKCW101, FhuAΔC/Δ4L pore); assay: microbe, parasite or virus in culture; conditions: Escherichia coli, 16 h, read-out: MIC BW 25113 (WT) Pore
# Experimental: as §1, §2
# E. coli BW 25113 (WT) = assay: microbe, parasite or virus in culture; conditions: Escherichia coli, 16 h, read-out: MIC BW 25113 (WT) —
# Experimental: as §1, §2
# [5] = tested on: E. coli WT, WT-Pore, ΔTolC, ΔTolC-Pore; assay type: cell-based, Escherichia coli; conditions: E. coli
# [6] = tested on: E. coli ΔTolC-Pore (GKCW103, FhuAΔC/Δ4L pore); conditions: 0.1% arabinose, LB, 37° C., 16 h
# Experimental: as §1, §2
# E. coli GD102 (ΔTolC) = conditions: E. coli ΔTolC without pore; 0.1% arabinose; LB, 37° C., 16 h
# Experimental: as §1, §2
smiles,measurement,setting,value
NCC[C@H](O)C(=O)N[C@@H]1C[C@H](N)[C@@H](O[C@H]2O[C@H](CN)[C@@H](O)[C@H](O)[C@H]2O)[C@H](O)[C@H]1O[C@H]1O[C@H](CO)[C@@H](O)[C@H](N)[C@H]1O [Amikacin],MIC,P. aeruginosa PAO1,1 µg/mL
same,MIC Δ3 —,[1],1 µg/mL
same,"Fold MIC change, Efflux, PAO1-Pore/Δ3-Pore",[2],2 fold
same,"Fold MIC change, Efflux, PAO1/Δ3",[2],1 fold
same,"Fold MIC change, OM barrier, PAO1/PAO1-Pore",[2],0.5 fold
same,"Fold MIC change, OM barrier, Δ3/Δ3-Pore",[2],1 fold
same,MIC Δ3 Pore,[3],1 µg/mL
same,MIC,[4],2 µg/mL
same,MIC,E. coli BW 25113 (WT),2 µg/mL
same,"Fold MIC change, Efflux, WT-Pore/ΔTolC-Pore",[5],1 fold
same,"Fold MIC change, Efflux, WT/ΔTolC",[5],1 fold
same,"Fold MIC change, OM barrier, WT/WT-Pore",[5],1 fold
same,"Fold MIC change, OM barrier, ΔTolC/ΔTolC-Pore",[5],1 fold
same,MIC GD102 (ΔTolC) Pore,[6],2 µg/mL
same,MIC GD102 (ΔTolC) —,E. coli GD102 (ΔTolC),2 µg/mL
CC1(C)S[C@@H]2[C@H](NC(=O)[C@H](N)c3ccccc3)C(=O)N2[C@H]1C(=O)O [Ampicillin],MIC,[4],2 µg/mL
same,MIC,E. coli BW 25113 (WT),16 µg/mL
same,MIC GD102 (ΔTolC) Pore,[6],0.5 µg/mL
same,MIC GD102 (ΔTolC) —,E. coli GD102 (ΔTolC),8 µg/mL
CC1(C)S[C@@H]2[C@H](NC(=O)C(C(=O)O)c3ccccc3)C(=O)N2[C@H]1C(=O)O (some centres unmarked) [Carbenicillin],MIC,P. aeruginosa PAO1,32 µg/mL
same,MIC Δ3 —,[1],0.5 µg/mL
same,"Fold MIC change, Efflux, PAO1-Pore/Δ3-Pore",[2],32 fold
same,"Fold MIC change, Efflux, PAO1/Δ3",[2],64 fold
same,"Fold MIC change, OM barrier, PAO1/PAO1-Pore",[2],16 fold
same,"Fold MIC change, OM barrier, Δ3/Δ3-Pore",[2],8 fold
same,MIC Δ3 Pore,[3],0.063 µg/mL
same,MIC,[4],0.5 µg/mL
same,MIC,E. coli BW 25113 (WT),4 µg/mL
same,"Fold MIC change, Efflux, WT-Pore/ΔTolC-Pore",[5],1 fold
same,"Fold MIC change, Efflux, WT/ΔTolC",[5],4 fold
same,"Fold MIC change, OM barrier, WT/WT-Pore",[5],8 fold
same,"Fold MIC change, OM barrier, ΔTolC/ΔTolC-Pore",[5],2 fold
same,MIC GD102 (ΔTolC) Pore,[6],0.5 µg/mL
same,MIC GD102 (ΔTolC) —,E. coli GD102 (ΔTolC),1 µg/mL
O=C(N[C@H](CO)[C@H](O)c1ccc([N+](=O)[O-])cc1)C(Cl)Cl [Chloramphenicol],MIC,P. aeruginosa PAO1,8 µg/mL
same,MIC Δ3 —,[1],1 µg/mL
same,"Fold MIC change, Efflux, PAO1-Pore/Δ3-Pore",[2],16 fold
same,"Fold MIC change, Efflux, PAO1/Δ3",[2],8 fold
same,"Fold MIC change, OM barrier, PAO1/PAO1-Pore",[2],4 fold
same,"Fold MIC change, OM barrier, Δ3/Δ3-Pore",[2],8 fold
same,MIC Δ3 Pore,[3],0.125 µg/mL
same,MIC,[4],2 µg/mL
same,MIC,E. coli BW 25113 (WT),2 µg/mL
same,"Fold MIC change, Efflux, WT-Pore/ΔTolC-Pore",[5],4 fold
same,"Fold MIC change, Efflux, WT/ΔTolC",[5],4 fold
same,"Fold MIC change, OM barrier, WT/WT-Pore",[5],1 fold
same,"Fold MIC change, OM barrier, ΔTolC/ΔTolC-Pore",[5],1 fold
same,MIC GD102 (ΔTolC) Pore,[6],0.5 µg/mL
same,MIC GD102 (ΔTolC) —,E. coli GD102 (ΔTolC),0.5 µg/mL
C[C@H]1COc2c(N3CCN(C)CC3)c(F)cc3c(=O)c(C(=O)O)cn1c23 [Levofloxacin],MIC,P. aeruginosa PAO1,0.125 µg/mL
same,MIC,[4],0.016 µg/mL
same,MIC GD102 (ΔTolC) Pore,[6],0.004 µg/mL
same,MIC GD102 (ΔTolC) —,E. coli GD102 (ΔTolC),0.004 µg/mL
CCC[C@@H]1C[C@@H](C(=O)N[C@@H]([C@H]2O[C@H](SC)[C@H](O)[C@@H](O)[C@H]2O)[C@@H](C)O)N(C)C1 [Lincomycin],MIC,[4],512 µg/mL
same,MIC,E. coli BW 25113 (WT),512 µg/mL
same,"Fold MIC change, Efflux, WT-Pore/ΔTolC-Pore",[5],8 fold
same,"Fold MIC change, Efflux, WT/ΔTolC",[5],8 fold
same,"Fold MIC change, OM barrier, WT/WT-Pore",[5],1 fold
same,"Fold MIC change, OM barrier, ΔTolC/ΔTolC-Pore",[5],1 fold
same,MIC GD102 (ΔTolC) Pore,[6],64 µg/mL
same,MIC GD102 (ΔTolC) —,E. coli GD102 (ΔTolC),64 µg/mL
Nc1ccc2cc3ccc(N)cc3nc2c1 [Proflavine],MIC,[4],32 µg/mL
same,MIC,E. coli BW 25113 (WT),32 µg/mL
same,"Fold MIC change, Efflux, WT-Pore/ΔTolC-Pore",[5],4 fold
same,"Fold MIC change, Efflux, WT/ΔTolC",[5],4 fold
same,"Fold MIC change, OM barrier, WT/WT-Pore",[5],1 fold
same,"Fold MIC change, OM barrier, ΔTolC/ΔTolC-Pore",[5],1 fold
same,MIC GD102 (ΔTolC) Pore,[6],8 µg/mL
same,MIC GD102 (ΔTolC) —,E. coli GD102 (ΔTolC),8 µg/mL
[H]/N=C(/N)N[C@H]1[C@H](O)[C@@H](O)[C@H](O[C@@H]2O[C@@H](C)[C@](O)(C=O)[C@H]2O[C@@H]2O[C@@H](CO)[C@H](O)[C@@H](O)[C@@H]2NC)[C@@H](N/C(N)=N\[H])[C@@H]1O [Streptomycin],MIC,[4],2 µg/mL
same,MIC,E. coli BW 25113 (WT),2 µg/mL
same,"Fold MIC change, Efflux, WT-Pore/ΔTolC-Pore",[5],1 fold
same,"Fold MIC change, Efflux, WT/ΔTolC",[5],0.5 fold
same,"Fold MIC change, OM barrier, WT/WT-Pore",[5],1 fold
same,"Fold MIC change, OM barrier, ΔTolC/ΔTolC-Pore",[5],2 fold
same,MIC GD102 (ΔTolC) Pore,[6],2 µg/mL
same,MIC GD102 (ΔTolC) —,E. coli GD102 (ΔTolC),4 µg/mL
